melting point [°C]	SMILES
174 to 175	O=C1c2cccc3cccc(c23)C(O)N1CCN1CCN(c2ccccn2)CC1 (stereo unspecified)
142 to 144	CC(C)(C)c1ccc(Cn2c(-c3ccc4c(c3)OCO4)nc3ccccc32)cc1
199 to 201	CC(=O)OCc1cnc2c(NC(=O)c3c(Cl)cccc3Cl)cccc2c1
238 to 241	Cc1ccc2cccc(OCc3c(Cl)ccc(N(C)C(=O)CNC(=O)C=Cc4ccc(C(=O)O)cc4)c3Cl)c2n1
162 to 163	COc1ccc2c(c1)NC(=O)C(Cl)CC2 (stereo unspecified)
88	CC1=CC(=NO)CC(c2cccc(Cl)c2)N1 (stereo unspecified)
158 to 160	CC(C)N=C(NC#N)NCCN1CCC(C(=O)c2ccc(F)cc2)CC1
174 to 175	CC(Cc1ccc(Cl)c(OC(F)(F)C(F)F)c1)NC(=O)C1C2=C(C=CC1(O)c1ccc(F)cc1)CCCC=C2 (stereo unspecified)
176 to 177	CC12CCC(O)CC1=CCC1C2CCC2(C)C(n3nccn3)=CCC12 (stereo unspecified)
173 to 180	CC(=O)Nc1ccc(NC(=O)CN2CCC(Cc3ccc(F)cc3)CC2)cc1
71 to 75	Cc1cn(C(C)(C)C(=O)NC(C)(C)C)nc1-c1ccccc1
91	COC(=O)c1c(C)c(-c2cccnc2)n2c1CSC2
135 to 137	Cc1nccn1-c1ccc([N+](=O)[O-])cc1
135	CCOC(=O)C(Cc1nc2ccccc2n1Cc1ccc([N+](=O)[O-])cc1)C(=O)OCC
231	CC(C)(C)OC(=O)N[C@@H](Cc1ccc(NC(=O)c2csc(NC(=O)NCc3ccccc3)n2)cc1)C(=O)O
61.1 to 63.6	C[C@H]1CCCC(C)(C)[C@@H]1[C@@H](O)c1ccc(Cl)c(F)c1
136 to 138	Cc1ccc(S(=O)(=O)n2ccc3cccnc32)cc1
356	Cn1c(=O)c(=O)[nH]c2cc([N+](=O)[O-])ccc21
128 to 130	CN(C)c1cc(S(=O)(=O)c2ccccc2)cc(Br)n1
132 to 133	CC(=O)Nc1ccc(F)c(-c2ccccn2)c1F
91 to 93	CCCCCCCCCCCCc1nnn(C(C(N)=O)c2c(C(C)C)cccc2C(C)C)n1 (stereo unspecified)
202 to 204	Clc1ccc(-c2ccc(Cl)nn2)cc1
54 to 57	Cc1cc(-c2nnn(C)n2)cc(C)c1OCCCCC1Cc2cccnc2N1C (stereo unspecified)
174 to 176	COc1ccc2cc(C=C(C)C(=O)NCCN(O)C(N)=O)ccc2c1

melting point [°C]	SMILES
> 250	O=C1CCCC2=C1C(c1ccc(F)c(I)c1)C1=C(CCS1)N2 (stereo unspecified)
174 to 175	CN1C(=O)N(c2c(Cl)cccc2Cl)Cc2cnc(NCCc3ccc(N)cc3)nc21
186 to 197	N#Cc1nc(-c2ccc(O)cc2)cs1
226 to 228	O=C1NC(=O)C(Cc2c[nH]c3ccc(Cl)cc23)N1 (stereo unspecified)
196 to 197	Cc1ccc(-c2ccc3c(c2)C=C(C(=O)Nc2ccc(CN4CCCCC4)cc2)CO3)cc1
108 to 110	COc1cccc(CNC(=O)c2ccc(CCl)cc2)c1
220 to 223	COc1ccc(-c2nc3cc(F)ccc3s2)cc1OC(=O)c1ccccc1Br
156	O=C1NC2(CCC(F)(F)CC2)C(O)=C1c1cc(-c2ccc(Cl)cc2)ccc1Cl
135	O=C(NCc1ccccn1)Nc1cc(N2C(=O)C3(CCCC3)c3ccccc32)ccn1
210	NC(=O)c1ccn2c1CSC2c1cccnc1 (single isomer, unassigned; (+))
210 to 211	Cc1ccc(-c2ccc3c(c2)C=C(C(=O)Nc2ccc(CN4CCCCC4)cc2)CC(c2ccccc2)O3)cc1 (stereo unspecified)
141 to 143	Cc1nc(O)cc(C(F)(F)F)n1
226	CCNc1ccc(C(N)=O)cc1[N+](=O)[O-]
62	CC(=O)Nc1ccc2c(c1)CCCC2
207 to 209	CCCc1nc(-c2cccnc2)cnc1Cl
182	Cc1c(C(=O)Nc2ccc(N3CCC(O)CC3)c(C#N)c2)cnn1-c1ccccc1
139 to 141	CSC(Nc1ccc2c(c1)OCO2)=C(C#N)C(=O)C(C)(C)C
238 to 242	O=C(O)COc1ccc2cc(-c3cnc(-c4cn(Cc5ccccc5)c5ccccc45)o3)ccc2c1
145 to 147	CSc1ccc(-c2cc(C(F)(F)F)nn2-c2ccc(C#N)cc2)cc1
148 to 150	Cn1cncc1COCC(O)c1ccc(OCc2ccccc2)cc1 (stereo unspecified)
208 to 209	CN(C)C=C(C(=O)C(=O)c1ccccc1)c1ccc(C(=O)O)cc1
134 to 135	CN(Cc1cc(C(F)(F)F)cc(C(F)(F)F)c1)C(=O)c1ncc2ccccc2c1-c1ccc(F)cc1
155	CON1C=C2N=NC3=C(N2C1)N(c1cccc(Cl)c1)CC(C1CC1)=C3
162 to 169	COc1ccc(CCNc2ncnc3c(F)ccc(F)c23)cc1C

melting point [°C]	SMILES
135 to 137	CCCNC(=O)C1(C/C=C\CSc2nc3ccc(OCC)cc3s2)c2ccccc2-c2ccccc21
92 to 94	CC(C)(C)[Si](C)(C)OC1=Cc2ccccc2C1[Si](C)(C)C1C(O[Si](C)(C)C(C)(C)C)=Cc2ccccc21 (stereo unspecified)
98 to 104	COc1ncc(C(F)(F)F)cc1C=NO
176	CC(C)n1nc(-c2cnc(N)nc2-c2ccc(Cl)c(Cl)c2)ccc1=O
66 to 69	Cc1cc(-c2cc(Br)n(C)n2)c(C)[nH]1
200 to 203	O=c1cccc(-c2ccc(Cl)cc2)[nH]1
139 to 140	CC/C(=C\c1ccc(OCCOC)cc1Oc1ncc(Cl)cc1Cl)C(=O)O
159 to 166	O=S1(=O)Cc2cc(Cl)ccc2Oc2ccccc21
130 to 133	C[C@]1(CN)COc2cccc(-c3ccccc3)c2O1
189 to 190	COc1ncccc1OCC1(c2onc(-c3ccc(O)cc3)c2-c2ccccc2)CC1
212 to 213	CC(C)OC(=O)c1cc(-n2c(N)c(C#N)cnc2=O)c(F)cc1Cl
262	Cn1cnc2c(=O)n(-c3ccccc3)c3ncccc3c21
196 to 198	CC(Cn1ncnn1)n1nnc2cc3c(=O)n(CCF)nnc3cc2c1=O (stereo unspecified)
140 to 142	CCOCc1nc2c(N)nc(C)c(C)c2n1CCCNC(=O)N1CCOCC1
138 to 140	CC#Cc1cc(C)nc(Nc2ccc(F)cc2)n1
166 to 167	Fc1cc(Cl)ccc1/C=C/c1nc(COc2ccc(-c3nc(Cn4ccnc4)co3)cc2)co1
128 to 129	C#CCOc1nc(-n2ccnc2)c(I)c(C(F)(F)F)n1
187 to 188	Cc1ccc(C)c(NC(=O)C(C)c2ccc(N)c([N+](=O)[O-])c2)c1 (stereo unspecified)
110 to 111	CC[Si](CC)(CC)OC1CCCc2cnc3ccc(OCc4ccccc4[N+](=O)[O-])cc3c21 (stereo unspecified)
172 to 173	Cn1cc(Br)nc(Nc2cnn(CCO[Si](C)(C)C(C)(C)C)c2)c1=O
140 to 145	Cc1cc(SC2=C(O)CC(CCc3ccc(O)cc3)(CCc3ccc(O)cc3)OC2=O)c(C(C)(C)C)cc1N
236 to 237	CC[C@H]1[C@@H](N)CN1c1cc2c(cc1F)c(=O)c(C(=O)O)cn2C1CC1 (relative stereo)

SMILES	melting point [°C]
C#CC1(O)CCC2(C)C(CCC3C2CCC2(C)C(C(C)=O)CCC32)C1 (stereo unspecified)	196 to 197
